From US12103920B2, “Cereblon binding compounds, compositions thereof, and methods of treatment therewith” (Celgene Corporation, priority 2020, dated 2024)
Where a name gives a salt, the structure may show the parent alone.

Molecular target: T1, AR protein in VCaP cells (Homo sapiens, UniProt P10275)
T1 construct: endogenous in cells; host or cells: VCaP cells
T1 sequence (P10275 1-920): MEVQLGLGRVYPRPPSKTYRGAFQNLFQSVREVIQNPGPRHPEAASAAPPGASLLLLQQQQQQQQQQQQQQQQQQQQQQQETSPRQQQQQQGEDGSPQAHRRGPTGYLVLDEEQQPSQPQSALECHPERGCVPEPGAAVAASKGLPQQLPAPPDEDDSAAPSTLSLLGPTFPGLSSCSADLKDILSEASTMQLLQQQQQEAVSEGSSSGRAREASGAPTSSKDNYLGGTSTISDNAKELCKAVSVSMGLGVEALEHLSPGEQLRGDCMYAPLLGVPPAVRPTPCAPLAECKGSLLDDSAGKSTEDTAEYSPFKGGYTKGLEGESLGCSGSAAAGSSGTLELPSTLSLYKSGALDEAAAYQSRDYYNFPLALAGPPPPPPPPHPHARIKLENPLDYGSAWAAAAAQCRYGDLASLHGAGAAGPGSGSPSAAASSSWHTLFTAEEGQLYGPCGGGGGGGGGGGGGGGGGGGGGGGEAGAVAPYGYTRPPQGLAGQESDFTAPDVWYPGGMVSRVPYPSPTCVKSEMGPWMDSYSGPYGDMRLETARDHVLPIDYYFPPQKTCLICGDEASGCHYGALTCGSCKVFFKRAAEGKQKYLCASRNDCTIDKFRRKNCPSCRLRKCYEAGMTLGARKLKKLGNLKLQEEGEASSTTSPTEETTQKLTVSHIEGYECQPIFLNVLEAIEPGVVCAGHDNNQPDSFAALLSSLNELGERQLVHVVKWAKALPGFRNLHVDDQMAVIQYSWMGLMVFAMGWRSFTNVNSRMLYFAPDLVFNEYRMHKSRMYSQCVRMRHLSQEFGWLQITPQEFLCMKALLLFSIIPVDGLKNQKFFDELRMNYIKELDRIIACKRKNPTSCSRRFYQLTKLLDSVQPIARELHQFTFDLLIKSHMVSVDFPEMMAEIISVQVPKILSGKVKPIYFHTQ
Assay: VCAP AR Degradation Assay
Assay type: cell-based
Details: 24 h, AR ELISA; for DC50: concentration at 50% of DMSO control (50% AR degradation); for Y: lowest measured AR level normalized to DMSO control
Description: VCAP AR Degradation Assay. Test compounds were pre-dispensed into a Corning CellBind 96-well clear bottom plate (Cat #3300) using an acoustic dispenser to make a 10-point concentration series at 1:3 dilution for each compound. The final top concentration of each compound was 5 μM. DMSO at a final concentration of 0.1% was used as a control. VCaP cells cultured in DMEM with 8% fetal bovine serum (FBS) were seeded at 50K cells per well in a 200 μL volume into the compound plate and incubated at 37° C. in a CO2 incubator for 24 h. The medium was carefully removed from the cells and the plate was placed on ice. One hundred μL of ice-cold 1× cell lysis buffer from Cell Signaling Technologies (Cat #9803) was added to each well of the cells and the plate was incubated at 4° C. on a shaker for 1 h. Fifteen μL of cell lysate was used for AR ELISA detection using a PathScan Total Sandwich AR ELISA kit (Cell Signaling Technology, Cat #12580). AR levels in compound-treated wells were normalized to that of DMSO control and expressed as percent of control (PoC) (y). A Four Parameter Logistic Model (Sigmoidal Dose-Response Model) was used to determine the compound's DC50, and EC50, using the following equation: y=(A+((B−A)/(1+((C/x)^D)))) • A=YMin (lowest AR level normalized to DMSO control in response to compound treatment, as determined by curve fit) • B=YMax (maximum AR level as determined by curve fit) • C=EC50 • D=Hill Slope • x=compound concentration • EC50=the concentration of compound when y=(YMax−YMin)/2 • DC50=the concentration of the compound when y=50% of DMSO control (50% AR degradation) • y=AR protein level normalized to DMSO control
The lowest measured AR level normalized to DMSO control in response to compound treatment, termed Y value, was used to characterize the compound-mediated AR degradation efficiency.

| SMILES | DC50 | Y |
| --- | --- | --- |
| C[C@@H]1CN(CCC[C@H]2CC[C@H](N3C(=S)N(c4ccc(C#N)c(Cl)c4)C(=O)C3(C)C)CC2)C[C@H](C)N1CC(=O)Nc1cccc(NC2CCC(=O)NC2=O)c1 (stereo partly drawn) [Cmpd 14, 2-((2S,6R)-4-(3-(trans-4-(3-(3-Chloro-4-cyanophenyl)-5,5-dimethyl-4-oxo-2-thioxoimidazolidin-1-yl)cyclohexyl)propyl)-2,6-dimethylpiperazin-1-yl)-N-(3-((2,6-dioxopiperidin-3-yl)amino)phenyl)acetamide hydrochloride] | 10 to 100 nM | *** (25%<Y<50%) |
| C[C@@H]1C[C@@H](CCO[C@H]2CC[C@H](N3C(=S)N(c4ccc(C#N)c(C(F)(F)F)c4)C(=O)C3(C)C)CC2)C[C@H](C)N1CC(=O)Nc1cccc(NC2CCC(=O)NC2=O)c1 (stereo partly drawn) [Cmpd 15, 2-((2R,4s,6S)-4-(2-((trans-4-(3-(4-Cyano-3-(trifluoromethyl)phenyl)-5,5-dimethyl-4-oxo-2-thioxoimidazolidin-1-yl)cyclohexyl)oxy)ethyl)-2,6-dimethylpiperidin-1-yl)-N-(3-((2,6-dioxopiperidin-3-yl)amino)phenyl)acetamide hydrochloride] | 5 to 10 nM | * (0<Y≤15%) |
| C[C@@H]1C[C@H](CCO[C@H]2CC[C@H](N3C(=S)N(c4ccc(C#N)c(C(F)(F)F)c4)C(=O)C3(C)C)CC2)C[C@H](C)N1CC(=O)Nc1cccc(NC2CCC(=O)NC2=O)c1 (stereo partly drawn) [Cmpd 16, 2-((2R,4r,6S)-4-(2-((trans-4-(3-(4-Cyano-3-(trifluoromethyl)phenyl)-5,5-dimethyl-4-oxo-2-thioxoimidazolidin-1-yl)cyclohexyl)oxy)ethyl)-2,6-dimethylpiperidin-1-yl)-N-(3-((2,6-dioxopiperidin-3-yl)amino)phenyl)acetamide hydrochloride] | 5 to 10 nM | * (0<Y≤15%) |
| C[C@@H]1CN(CCCC[C@H]2CC[C@H](N3C(=S)N(c4ccc(C#N)c(C(F)(F)F)c4)C(=O)C3(C)C)CC2)C[C@H](C)N1CC(=O)Nc1cccc(NC2CCC(=O)NC2=O)c1 (stereo partly drawn) [Cmpd 17, 2-((2R,6S)-4-(4-(trans-4-(3-(4-Cyano-3-(trifluoromethyl)phenyl)-5,5-dimethyl-4-oxo-2-thioxoimidazolidin-1-yl)cyclohexyl)butyl)-2,6-dimethylpiperazin-1-yl)-N-(3-((2,6-dioxopiperidin-3-yl)amino)phenyl)acetamide hydrochloride] | 10 to 100 nM | *** (25%<Y<50%) |
| C[C@@H]1CN(CCC[C@H]2CC[C@H](N3C(=S)N(c4ccc(C#N)c(C(F)(F)F)c4)C(=O)C3(C)C)CC2)C[C@H](C)N1CC(=O)Nc1cccc(N[C@H]2CCC(=O)NC2=O)c1 [Cmpd 18, 2-((2R,6S)-4-(3-(trans-4-(3-(4-Cyano-3-(trifluoromethyl)phenyl)-5,5-dimethyl-4-oxo-2-thioxoimidazolidin-1-yl)cyclohexyl)propyl)-2,6-dimethylpiperazin-1-yl)-N-(3-(((S)-2,6-dioxopiperidin-3-yl)amino)phenyl)acetamide] | 10 to 100 nM | ** (15%<Y≤20%) |
| CC1(C)C(=O)N(c2ccc(C#N)c(C(F)(F)F)c2)C(=S)N1[C@H]1CC[C@H](OCCN2CCN(CC(=O)Nc3cccc(NC4CCC(=O)NC4=O)c3)[C@@H](C(F)(F)F)C2)CC1 (stereo partly drawn) [Cmpd 19, 2-((R)-4-(2-((trans-4-(3-(4-Cyano-3-(trifluoromethyl)phenyl)-5,5-dimethyl-4-oxo-2-thioxoimidazolidin-1-yl)cyclohexyl)oxy)ethyl)-2-(trifluoromethyl)piperazin-1-yl)-N-(3-((2,6-dioxopiperidin-3-yl)amino)phenyl)acetamide hydrochloride] | 5 to 10 nM | * (0<Y≤15%) |
| CC1(C)C(=O)N(c2cnc(C#N)c(C(F)(F)F)c2)C(=S)N1[C@H]1CC[C@H](OCCN2CCN(CC(=O)Nc3cccc(NC4CCC(=O)NC4=O)c3)[C@@H](C(F)(F)F)C2)CC1 (stereo partly drawn) [Cmpd 20, 2-((R)-4-(2-((trans-4-(3-(6-Cyano-5-(trifluoromethyl)pyridin-3-yl)-5,5-dimethyl-4-oxo-2-thioxoimidazolidin-1-yl)cyclohexyl)oxy)ethyl)-2-(trifluoromethyl)piperazin-1-yl)-N-(3-((2,6-dioxopiperidin-3-yl)amino)phenyl)acetamide hydrochloride] | ≤ 5 nM | * (0<Y≤15%) |
| C[C@@H]1C[C@H](CCO[C@H]2CC[C@H](N3C(=S)N(c4cnc(C#N)c(C(F)(F)F)c4)C(=O)C3(C)C)CC2)C[C@H](C)N1CC(=O)Nc1cccc(NC2CCC(=O)NC2=O)c1 (stereo partly drawn) [Cmpd 21, 2-((2S,4r,6R)-4-(2-((trans-4-(3-(6-Cyano-5-(trifluoromethyl)pyridin-3-yl)-5,5-dimethyl-4-oxo-2-thioxoimidazolidin-1-yl)cyclohexyl)oxy)ethyl)-2,6-dimethylpiperidin-1-yl)-N-(3-((2,6-dioxopiperidin-3-yl)amino)phenyl)acetamide] | ≤ 5 nM | * (0<Y≤15%) |
| C[C@@H]1C[C@@H](CCO[C@H]2CC[C@H](N3C(=S)N(c4cnc(C#N)c(C(F)(F)F)c4)C(=O)C3(C)C)CC2)C[C@H](C)N1CC(=O)Nc1cccc(NC2CCC(=O)NC2=O)c1 (stereo partly drawn) [Cmpd 22, 2-((2S,4s,6R)-4-(2-(((trans)-4-(3-(6-Cyano-5-(trifluoromethyl)pyridin-3-yl)-5,5-dimethyl-4-oxo-2-thioxoimidazolidin-1-yl)cyclohexyl)oxy)ethyl)-2,6-dimethylpiperidin-1-yl)-N-(3-((2,6-dioxopiperidin-3-yl)amino)phenyl)acetamide] | ≤ 5 nM | * (0<Y≤15%) |
| CC1(C)C(=O)N(c2ccc(C#N)c(C(F)(F)F)c2)C(=S)N1[C@H]1CC[C@H](OCCN2CCN(CC(=O)Nc3cc(F)cc(NC4CCC(=O)NC4=O)c3)[C@@H](C(F)(F)F)C2)CC1 (stereo partly drawn) [Cmpd 23, 2-((R)-4-(2-(((trans)-4-(3-(4-Cyano-3-(trifluoromethyl)phenyl)-5,5-dimethyl-4-oxo-2-thioxoimidazolidin-1-yl)cyclohexyl)oxy)ethyl)-2-(trifluoromethyl)piperazin-1-yl)-N-(3-((2,6-dioxopiperidin-3-yl)amino)-5-fluorophenyl)acetamide] | 5 to 10 nM | * (0<Y≤15%) |
| CC1(C)C(=O)N(c2cnc(C#N)c(C(F)(F)F)c2)C(=S)N1[C@H]1CC[C@H](OCCN2CCN(CC(=O)Nc3cc(F)cc(NC4CCC(=O)NC4=O)c3)[C@@H](C(F)(F)F)C2)CC1 (stereo partly drawn) [Cmpd 24, 2-((R)-4-(2-(((trans)-4-(3-(6-Cyano-5-(trifluoromethyl)pyridin-3-yl)-5,5-dimethyl-4-oxo-2-thioxoimidazolidin-1-yl)cyclohexyl)oxy)ethyl)-2-(trifluoromethyl)piperazin-1-yl)-N-(3-((2,6-dioxopiperidin-3-yl)amino)-5-fluorophenyl)acetamide] | ≤ 5 nM | * (0<Y≤15%) |
| CC1(C)C(=O)N(c2cnc(C#N)c(C(F)(F)F)c2)C(=S)N1[C@H]1CC[C@H](CCCN2CCN(CC(=O)Nc3cccc(NC4CCC(=O)NC4=O)c3)[C@@H](C(F)(F)F)C2)CC1 (stereo partly drawn) [Cmpd 25, 2-((R)-4-(3-((trans)-4-(3-(6-Cyano-5-(trifluoromethyl)pyridin-3-yl)-5,5-dimethyl-4-oxo-2-thioxoimidazolidin-1-yl)cyclohexyl)propyl)-2-(trifluoromethyl)piperazin-1-yl)-N-(3-((2,6-dioxopiperidin-3-yl)amino)phenyl)acetamide] | 5 to 10 nM | * (0<Y≤15%) |
